Measured values taken from ChEMBL document CHEMBL2028040, “Malaria Box”.

Key:
Trypanosoma cruzi = assay: MMV: Inhibition of Trypanosoma cruzi (Tulahuen C4 LacZ) (Chagas in vitro).; type: functional, organism-based
Leishmania infantum = assay: MMV: Inhibition of Leishmania infantum (MHOM/MA/BE/67) in vitro.; type: functional, organism-based
[1] = test system: Trypanosoma brucei rhodesiense; assay: MMV: Inhibition of Trypanosoma brucei rhodesiense (STIB 900) (HAT in vitro).; type: functional, organism-based
[2] = test system: Trypanosoma brucei brucei; assay: MMV: Inhibition of Trypanosoma brucei brucei (Squib 427) (HAT in vitro).; type: functional, organism-based
Plasmodium falciparum [3] = assay: MMV: Inhibition of Plasmodium falciparum 3D7 (EC50).; type: functional, organism-based
[4] = MMV: Cytotoxicity against human fibroblasts (MRC-5) cells.; conditions: MRC-5 cells (human fibroblasts)
Plasmodium falciparum [5] = assay: MMV: Inhibition of Plasmodium falciparum 3D7 at 5uM compound concentration.; type: functional

| Compound | IC50 (Trypanosoma cruzi) [µM] | IC50 (Leishmania infantum) [µM] | IC50 [1] [µM] | IC50 [2] [µM] | EC50 (Plasmodium falciparum [3]) [µM] | IC50 [4] [µM] | inhibition at 5 µM (Plasmodium falciparum [5]) [%] |
| --- | --- | --- | --- | --- | --- | --- | --- |
| CN(N=O)C1=C(NC2CCCCC2)C(=O)c2ccccc2C1=O | 12.8 | > 32 | 4.61 | 16.5 | 1.19 | > 32 |  |
| Clc1ccc2[nH]c3c(NCCCN4CCOCC4)ncnc3c2c1 | 21.3 | > 32 | 3.94 | > 32 | 0.7 | > 32 |  |
| OC(CNCC1CCCO1)Cn1c2ccc(Cl)cc2c2cc(Cl)ccc21 (stereo not drawn) | 19.2 | 16.1 | 6.12 | 10 | 1.06 | > 32 |  |
| COc1ccc(Nc2cc(C)nc(NCc3ccccc3)n2)cc1 | 1.04 | 4.32 | 3.86 | 2.95 | 0.467 | 13.5 |  |
| N#Cc1nc(Cc2cccc3ccccc23)oc1N1CCN(C(c2ccccc2)c2ccccc2)CC1 | > 32 | 25.4 | 15.7 | > 32 | 1.16 | > 32 |  |
| CCN1CCCC1CNc1[nH]cnc2c3cc(Cl)ccc3nc1-2 (stereo not drawn) | > 32 | 16.2 | > 32 | > 32 | 0.218 | > 32 |  |
| CCN(CC)CCNc1ncnc2c1[nH]c1ccc(Cl)cc12 | 10.7 | 16.2 | 3.73 | 4.09 | 0.406 | > 32 |  |
| Cc1sc(NC(=O)c2ccccc2)c(C(c2cccs2)N2CCN(c3ccccc3)CC2)c1C (stereo not drawn) | > 32 | 12.7 | 4 | 6.32 | 1.18 | > 32 |  |
| Cc1sc(NC(=O)c2ccco2)c(C(c2cccnc2)N2CCC(Cc3ccccc3)CC2)c1C (stereo not drawn) | 1.36 | 16.2 | 3.97 | 3.94 | 1.02 | > 32 |  |
| CCOC(=O)c1c(C)n(-c2ccccc2)c2ccc(OC(=O)c3cc(OC)c(OC)c(OC)c3)cc12 | 13.3 | > 32 | 10.8 | 16.2 | 0.615 | 26.4 |  |
| C[n+]1c2ccccc2nc2ccc(NCCO)cc21 | 16 | > 32 | 16 | 14 | 0.296 | > 32 |  |
| CCOc1cc(CNC(C)C(O)c2ccccc2)cc(Cl)c1OCC (stereo not drawn) | 25.4 | 16.6 | 8.67 | 11.5 | 1.24 | > 32 |  |
| Cc1cc(Nc2ccc3ccccc3c2)n2ncnc2n1 | > 32 | > 32 | > 32 | > 32 | 0.242 | > 32 |  |
| COc1cc2c(cc1OC)C1=NNC(=O)C1=NC(C)(C)C2 | 3.59 | 4.03 | 6.64 | 12.9 | 1.04 | > 32 |  |
| Oc1ccc(Br)cc1CN1CCN(Cc2cccc(F)c2)CC1 | 12.6 | 25.4 | 16.7 | > 32 | 1.03 | > 32 |  |
| CCCC(c1nnnn1C1CCCCC1)N1CCN(C(=O)c2ccco2)CC1 (stereo not drawn) | > 32 | > 32 | > 32 | > 32 |  | > 32 | 82 |
| O=C(CSc1ccc2nnc(-c3cccc(F)c3)n2n1)Nc1ccc2c(c1)OCO2 | > 32 | > 32 | > 32 | > 32 |  | > 32 | 92 |
| CC(C)(C)C(=O)Nc1ccc(C(=O)Nc2cccc(-c3nc4ccccc4[nH]3)c2)cc1 | 11.8 | > 32 | 3.14 | 16.4 |  | 17.9 | 91 |
| O=C(Nc1ccc(Cl)cc1)N1CCN(c2ccc3nncn3n2)CC1 | > 32 | > 32 | > 32 | > 32 |  | > 32 | 62 |
| COc1ccc(-c2cc3c(nn2)-c2ccccc2C3=O)cc1 | > 32 | > 32 | > 32 | > 32 |  | > 32 | 97 |
| CCN(CC)CCCNc1ccnc2cc3ccccc3cc12 | > 32 | > 32 | 16.2 | 16.5 |  | > 32 | 90 |
| Oc1c2c(nc3cc(-c4ccccc4)nn13)CCCC2 | > 32 | > 32 | 8 | 12.8 |  | > 32 | 77 |
| Oc1ccc(C(=C(Cl)Cl)c2ccc(O)cc2)cc1 | > 32 | > 32 | > 32 | > 32 |  | > 32 | 95 |
